PMC11077371, “Ciliogenesis-associated Kinase 1 Promotes Breast Cancer Cell Proliferation and Chemoresistance via Phosphorylating ERK1” (International Journal of Biological Sciences, 2024)

Molecular target: T1, CILK1 (Homo sapiens, UniProt Q9UPZ9)
T1 construct: purchased protein (Abcam ab101774)
T1 sequence (Q9UPZ9 1-632): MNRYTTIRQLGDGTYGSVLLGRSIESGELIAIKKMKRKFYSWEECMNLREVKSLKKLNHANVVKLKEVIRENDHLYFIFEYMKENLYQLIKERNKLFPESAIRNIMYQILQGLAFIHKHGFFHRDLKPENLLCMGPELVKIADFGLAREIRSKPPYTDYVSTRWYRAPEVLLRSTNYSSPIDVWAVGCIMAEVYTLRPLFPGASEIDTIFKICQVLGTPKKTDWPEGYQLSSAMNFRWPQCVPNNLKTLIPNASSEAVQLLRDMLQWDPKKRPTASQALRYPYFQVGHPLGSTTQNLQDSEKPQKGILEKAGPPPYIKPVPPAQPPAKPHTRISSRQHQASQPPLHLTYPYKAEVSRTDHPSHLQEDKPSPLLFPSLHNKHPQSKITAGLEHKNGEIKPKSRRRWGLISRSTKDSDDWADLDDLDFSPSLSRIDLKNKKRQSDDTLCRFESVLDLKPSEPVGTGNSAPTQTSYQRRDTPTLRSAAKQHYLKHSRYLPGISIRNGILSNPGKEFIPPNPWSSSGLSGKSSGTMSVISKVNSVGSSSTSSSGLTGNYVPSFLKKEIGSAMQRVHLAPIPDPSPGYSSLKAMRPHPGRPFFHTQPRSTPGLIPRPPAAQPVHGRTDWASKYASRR
Assay: surface plasmon resonance, […] Langmuir fit
Assay type: binding
Settings: 3D Dextran chip; 1.5625-25 μM analyte

Kd: 108 nM
Compound: CCc1ccc2nc(Nc3nc(C)c(Cc4ccc(C)cc4)c(=O)[nH]3)nc(C)c2c1 [CILK1-C30]
